Measured values reported in patent US8378104B2 (OSI Pharmaceuticals, LLC, priority 2010, dated 2013).
pIC50: −log10 of the molar value. Counter-ions that a name gives are not always drawn.

Tests used:
[1] = tested on: p-p38 in HCT-116 cells; assay: Phospho-p38 Meso Scale ELISA assay, TNFα-stimulated HCT-116 cells; format: cell-based; conditions: Homo sapiens, read-out: mean HCT-116 p-p38 ELISA IC50 (Col. C)
Protocol: Detailed below are ELISA assays for pJNK and p38, and a TAK1 biochemical assay. […] In Table 1, Col.
• 1. Plate HCT-116 cells at 25,000 per well in 100 uL in 96 well clear dishes in normal growth medium. Day 2: • 1. Aspirate medium and replace with 90 μl reduced serum growth medium (1% FCS), incubate for 2 hours at 37° C. • 2. Make drugs at 10× in reduced serum medium and add 10 uL per well. • 3. Incubate at 37° C. for 4 hrs. • 4. Bring capture plates to room temperature. • 5. Block with 150 μl Blocking Solution (provided with kit) (600 mg Blocker A into 20 mL 1× Wash Buffer per plate) at room temperature with shaking. • 6. Wash plates 4× with 200 μl 1× wash buffer (10× provided with kit) before transferring lysates. • 7. Dilute TNFα to […] in reduced serum medium (this makes a 10× working stock). • 8. Add 10 μl TNFα to all wells except negative control wells, final concentration is 10 ng/mL. • 9. Incubate at 37° C. for 10 minutes. • 10. Remove medium by flicking into sink • 11. Wash cells with 100 uL ice cold PBS. • 12. Remove PBS by flicking into sink and patting on paper towels. • 13. Lyse cells in 50 μl ice cold 1× Complete Lysis Buffer plus Phosphatase and Protease inhibitors (all provided with kit) (10 mL Tris Lysis Buffer+200 μl Protease inhibitor solution+100 μl Phosphatase inhibitor I+100 μl Phosphatase inhibitor II). • 14. Incubate with shaking at 4° C. for 30 minutes. • 15. Transfer 45 μl to capture plate, cover with adhesive cover, and incubate at 4° C. over night with shaking. • Day 3: • 1. Wash plates 4× with 200 μl 1× wash buffer (10× provided with kit). • 2. […] Incubate at room temperature with shaking for 1 hour. • 4. Wash 4× with 200 μl 1× Wash Buffer. • 5. […] Read on Sector Imager. Phospho-p38 Meso Scale ELISA Assay Day 1: • 1. Plate HCT-116 cells at 25,000 per well in 100 uL in 96 well clear dishes in normal growth medium. zday 2: • 1. Aspirate medium and replace with 90 μl reduced serum growth medium (1% FCS), incubate for 2 hours at 37° C. • 2. Make drugs at 10× in reduced serum medium and add 10 uL per well. • 3. Incubate at 37° C. for 4 hrs. • 4. Bring capture plates to room temperature. • 5. Block with 150 μl Blocking Solution (provided with kit) (600 mg Blocker A into 20 mL 1× Wash Buffer per plate) at room temperature with shaking. • 6. Wash plates 4× with 200 μl 1× wash buffer (10× provided with kit) before transferring lysates. • 7. Dilute TNFα to […] in reduced serum medium (this makes a 10× working stock). • 8. Add 10 μl TNFα to all wells except negative control wells, final concentration is 10 ng/mL. • 9. Incubate at 37° C. for 10 minutes. • 10. Remove medium by flicking into sink • 11. Wash cells with 100 uL ice cold PBS. • 12. Remove PBS by flicking into sink and patting on paper towels. • 13. Lyse cells in 50 μl ice cold 1× Complete Lysis Buffer plus phosphatase and protease inhibitors (all provided with kit) (10 mL Tris Lysis Buffer+200 μl Protease inhibitor solution+100 μl Phosphatase inhibitor I+100 μl Phosphatase inhibitor II). • 14. Incubate with shaking at 4° C. for 30 minutes. • 15. Dilute lysates before transferring to capture plate with 100 μl Complete p38 Lysate • Dilution Buffer (provided with kit) (10 mL of Diluent 20±200 μl Protease inhibitor solution+100 μl Phosphatase inhibitor I+100 μl Phosphatase inhibitor II). • 16. Transfer 50 μl of diluted lysates to capture plate, cover with adhesive cover, and incubate at 4° C. over night with shaking. Day 3: • 1. Wash plates 4× with 200 μl 1× wash buffer (10× provided with kit). • 2. […] Incubate at room temperature with shaking for 1 hour. • 4. Wash 4× with 200 μl 1× Wash Buffer. • 5. […] Read on Sector Imager. TAK1 Biochemical Assay

[2] = biological target: T1, TAK1-TAB1 fusion protein (Homo sapiens, UniProt O43318); assay: TAK1 biochemical assay (AlphaScreen, GST-MAP2K7 substrate); conditions: TAK1-TAB1 fusion protein, GST-MAP2K7 substrate; read-out: mean TAK1 IC50 (Col. A)
T1 construct: purchased Carna
T1 sequence (O43318 with tags, fused parts or gaps limits assumed): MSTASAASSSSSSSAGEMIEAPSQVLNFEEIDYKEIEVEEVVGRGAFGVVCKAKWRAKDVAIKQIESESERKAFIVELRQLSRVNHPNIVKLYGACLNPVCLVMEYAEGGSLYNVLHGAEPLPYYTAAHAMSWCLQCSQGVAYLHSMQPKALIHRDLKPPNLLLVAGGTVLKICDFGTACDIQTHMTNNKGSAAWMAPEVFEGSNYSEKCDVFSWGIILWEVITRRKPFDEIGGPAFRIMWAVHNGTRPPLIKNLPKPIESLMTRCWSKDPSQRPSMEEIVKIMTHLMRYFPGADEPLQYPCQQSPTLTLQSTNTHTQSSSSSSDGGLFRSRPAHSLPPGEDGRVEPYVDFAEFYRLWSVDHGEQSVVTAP

[3] = tested on: pJNK in HCT-116 cells; assay: Phospho-JNK (Thr183/Tyr185) Meso Scale ELISA assay, TNFα-stimulated HCT-116 cells; format: cell-based; conditions: Homo sapiens, read-out: mean HCT-116 pJNK ELISA IC50 (Col. B)
In short: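 HCT-116 cells in 1% FCS medium were pretreated with compound for 4 hrs at 37° C, then stimulated with TNFα at 10 ng/mL final for 10 minutes. Lysates were taken in ice-cold lysis buffer with phosphatase and protease inhibitors, and phospho-JNK (Thr183/Tyr185) was measured by Meso Scale ELISA.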

Row | pIC50 [1] | pIC50 [2] | pIC50 [3] | SMILES
1 | 6.00 to 7.00 | 6.00 to 7.00 | 6.00 to 7.00 | CS(=O)(=O)CCN1CCC(n2cc(-c3cnc(N)c4oc(-c5cccc6cnccc56)cc34)cn2)CC1 [Example 82, 2-(isoquinolin-5-yl)-4-(1-{1-[2-(methylsulfonyl)ethyl]piperidin-4-yl}-1H-pyrazol-4-yl)furo[2,3-c]pyridin-7-amine]
2 | 5.00 to 6.00 | 6.00 to 7.00 | 6.00 to 7.00 | COc1nn([C@H]2CC[C@@H](O)CC2)cc1-c1cnc(N)c2oc(-c3csc4cnccc34)cc12 [Example 303, 4-[4-(7-amino-2-thieno[2,3-c]pyridin-3-yl-furo[2,3-c]pyridin-4-yl)-3-methoxy-pyrazol-1-yl]-cyclohexanol]
3 | 5.00 to 6.00 | 6.00 to 7.00 | 6.00 to 7.00 | CC(=O)N1CCC(n2cc(-c3cnc(N)c4oc(-c5ccc6[nH]ncc6c5)cc34)cn2)CC1 [Example 94, 1-(4-{4-[7-amino-2-(1H-indazol-5-yl)furo[2,3-c]pyridin-4-yl]-1H-pyrazol-1-yl}piperidin-1-yl)ethanone]
4 | 6.00 to 7.00 | > 7.00 | 6.00 to 7.00 | CC(=O)N1CCC(n2cc(-c3cnc(N)c4oc(-c5cccc(O)c5)cc34)cn2)CC1 [Example 132, 1-(4-{4-[7-amino-2-(3-hydroxyphenyl)furo[2,3-c]pyridin-4-yl]-1H-pyrazol-1-yl}piperidin-1-yl)ethanone]
5 | 6.00 to 7.00 | > 7.00 | 6.00 to 7.00 | CC(=O)N1CCC(n2cc(-c3cnc(N)c4oc(-c5cccc6[nH]ncc56)cc34)cn2)CC1 [Example 177, 1-(4-{4-[7-amino-2-(1H-indazol-4-yl)furo[2,3-c]pyridin-4-yl]-1H-pyrazol-1-yl}piperidin-1-yl)ethanone]
6 | > 7.00 | > 7.00 | > 7.00 | Nc1ncc(-c2cnn([C@H]3CC[C@H](O)CC3)c2)c2cc(-c3csc4cnc(F)cc34)oc12 [Example 249, trans-4-{4-[7-amino-2-(5-fluorothieno[2,3-c]pyridin-3-yl)furo[2,3-c]pyridin-4-yl]-1H-pyrazol-1-yl}cyclohexanol]
7 | > 7.00 | 6.00 to 7.00 | > 7.00 | CC(C)C(=O)N1CCC(n2cc(-c3cnc(N)c4oc(-c5cccc6cnccc56)cc34)cn2)CC1 [Example 51, 1-(4-{4-[7-amino-2-(isoquinolin-5-yl)furo[2,3-c]pyridin-4-yl]-1H-pyrazol-1-yl}piperidin-1-yl)-2-methylpropan-1-one]

The remaining lines, values behind:

Row | SMILES | pIC50 [1] | pIC50 [2] | pIC50 [3]
8 | CCSc1ccccc1-c1cc2c(-c3cnn(C4CCN(C(C)=O)CC4)c3)cnc(N)c2o1 [Example 217] | 6.00 to 7.00 | 6.00 to 7.00 | 6.00 to 7.00
9 | Nc1ncc(-c2cc[nH]c2)c2cc(-c3csc4cnccc34)oc12 [Example 376, 4-(1H-pyrrol-3-yl)-2-thieno[2,3-c]pyridin-3-yl-furo[2,3-c]pyridin-7-ylamine] | 5.00 to 6.00 | 5.00 to 6.00 | 6.00 to 7.00
10 | CC(=O)N1CCC(n2cc(-c3cnc(N)c4oc(-c5ccccc5)cc34)cn2)CC1 [Example 149, 1-{4-[4-(7-amino-2-phenylfuro[2,3-c]pyridin-4-yl)-1H-pyrazol-1-yl]piperidin-1-yl}ethanone] | 5.00 to 6.00 | 5.00 to 6.00 | 6.00 to 7.00
11 | CC(=O)N1CCC(n2cc(-c3cnc(N)c4oc(-c5csc6cncc(F)c56)cc34)cn2)CC1 [Example 254, 1-(4-{4-[7-amino-2-(4-fluorothieno[2,3-c]pyridin-3-yl)furo[2,3-c]pyridin-4-yl]-1H-pyrazol-1-yl}piperidin-1-yl)ethanone trifluoroacetic Acid Salt] | 6.00 to 7.00 | > 7.00 | 6.00 to 7.00
12 | Nc1ncc(-c2cnn([C@H]3CC[C@H](O)CC3)c2)c2cc(-c3ccc4[nH]ncc4c3)oc12 [Example 402, trans-4-{4-[7-amino-2-(1H-indazol-5-yl)furo[2,3-c]pyridin-4-yl]-1H-pyrazol-1-yl}cyclohexanol] | 5.00 to 6.00 | 6.00 to 7.00 | 6.00 to 7.00
